Assay results: article PMC9964746, “Mechanism of Action and Structure–Activity Relationships of Tetracyclic Small Molecules Acting as Universal Positive Allosteric Modulators of the Cholecystokinin Receptor” (Membranes, 2023)
“And” between values parts separate entries of the source, which are not always exact repeats. Equal entries are not always repeated.

What was measured:
Type in all cases: cell-based
[1] = target: T1, vasopressin-2 receptor (AVP2R) (Homo sapiens, UniProt P30518); assay: AVP2R cAMP HTRF accumulation assay; conditions: CHO-K1 AVP2R cells; for AVP2R PAM (cAMP) Score (activity score = normalized Emax × pEC50): PAM format; for Emax / EC50: PAM format with vasopressin, original hits: agonist and PAM data combined, average ± SD
T1 construct: expressed in transfected cells; host or cells: CHO-K1 (PAM format); HEK-293 (agonist format)
Procedure, shortened: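 Readout is HTRF cAMP detection (30 min, room temperature) following 30 min compound exposure with vasopressin stimulation, using HEK-293 cells for agonist mode and CHO-K1 cells for PAM mode, both overexpressing AVP2R, in IBMX-containing HBSS/HEPES buffer. Curves: 16 points, 2-fold steps, duplicate, ≥2 experiments.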

CCK1R [2] = target: T2, CCK1R (Homo sapiens, UniProt P32238); assay: IP-One accumulation TR-FRET assay, agonist format, HEK-293 CCK1R cells; design: expressed in transfected cells; host or cells: HEK-293; conditions: for Emax: HEK293, relative to CCK control, read-out: CCK1R Ago (IP-One) Emax
T2 sequence (P32238 1-428): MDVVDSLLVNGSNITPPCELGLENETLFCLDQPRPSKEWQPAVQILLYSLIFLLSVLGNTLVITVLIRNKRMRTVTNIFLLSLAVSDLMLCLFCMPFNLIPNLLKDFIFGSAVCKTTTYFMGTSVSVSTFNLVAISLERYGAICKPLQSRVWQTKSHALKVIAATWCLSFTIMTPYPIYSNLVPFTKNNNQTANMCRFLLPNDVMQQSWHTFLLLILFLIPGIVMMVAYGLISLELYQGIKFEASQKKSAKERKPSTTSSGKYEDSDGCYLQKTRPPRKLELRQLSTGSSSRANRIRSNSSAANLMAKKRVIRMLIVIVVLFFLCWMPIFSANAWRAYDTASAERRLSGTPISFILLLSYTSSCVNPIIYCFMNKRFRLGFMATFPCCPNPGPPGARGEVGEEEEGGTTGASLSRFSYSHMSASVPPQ
Procedure, shortened: (§1)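 HEK-293 cells overexpressing CCK1R were plated overnight, then given compounds (top 50 µM, 16-point 2-fold) for 30 min at 37 °C. CCK stimulator with 50 mM LiCl (PAM format) or DMSO (agonist format) followed for 1 h. IP-One was read by TR-FRET; activity score = CCK-normalized Emax × pEC50.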

CCK1R [3] = target: T2, CCK1R; assay: IP-One accumulation TR-FRET assay, PAM format, HEK-293 CCK1R cells; design: expressed in transfected cells; host or cells: HEK-293; conditions: for Emax: HEK293, relative to CCK control; for Emax / CCK1R PAM (IP-One) Score (activity score = normalized Emax × pEC50) / EC50: HEK-293 CCK1R cells; for Emax / CCK1R PAM (IP-One) Score (activity score = normalized Emax × pEC50): PAM format; for Emax / EC50: average ± SD; for CCK1R IP-One activity (in words): PAM and agonist formats; for EC50: PAM format with EC20 CCK
Procedure, shortened: as §1

T1 sequence (P30518 whole entry): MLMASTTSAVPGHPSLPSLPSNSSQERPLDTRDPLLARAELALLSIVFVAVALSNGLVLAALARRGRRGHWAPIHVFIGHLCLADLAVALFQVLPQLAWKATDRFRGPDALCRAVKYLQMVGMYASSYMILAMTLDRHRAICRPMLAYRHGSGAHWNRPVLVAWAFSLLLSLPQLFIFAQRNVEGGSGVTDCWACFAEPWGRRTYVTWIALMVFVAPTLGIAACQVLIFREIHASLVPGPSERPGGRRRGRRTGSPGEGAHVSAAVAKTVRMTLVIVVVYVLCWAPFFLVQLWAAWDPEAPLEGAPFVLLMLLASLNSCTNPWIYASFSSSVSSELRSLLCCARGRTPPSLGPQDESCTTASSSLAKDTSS

| SMILES | AVP2R PAM (cAMP) Score (activity score = normalized Emax × pEC50) [1] | Emax [1] | CCK1R Ago (IP-One) Score (activity score = normalized Emax × pEC50) (CCK1R [2]) | Emax (CCK1R [2]; average ± SD) | Emax (CCK1R [3]) | CCK1R PAM (IP-One) Score (activity score = normalized Emax × pEC50) (CCK1R [3]) | EC50 [1] | EC50 (CCK1R [3]) | EC50 (CCK1R [2]; average ± SD, read-out: CCK1R Ago (IP-One) EC50) | CCK1R IP-One activity (in words) (CCK1R [3]) |
| --- | --- | --- | --- | --- | --- | --- | --- | --- | --- | --- |
| CCCCNc1ncnc2c1sc1nc(N3CCOCC3)c3c(c12)CCCC3 [CMP-48] | 0 | 0% | 0 | 0% | 0% | 0 |  |  |  | None of these analogs showed any CCK1R activity |
| CC(Sc1ncnc2c1sc1nc(N3CCOCC3)c3c(c12)CCCC3)C(=O)O (centres unmarked) [CMP-59] | 0.93 | 20% | 0 | 0% |  |  | 22.3 ± 7.2 µM |  |  | displayed no effects |
| CC(C)Cc1nc2oc3c(NCCN(C)C)ncnc3c2c2c1CCC2 [CMP-21] | 1.7 and 1.74 | 37 ± 4% | 0 |  | 45 ± 23% | 1.9 | 22.8 ± 3.8 µM | 23.8 ± 10.5 µM |  |  |
| CCOC(=O)N1CCN(c2ncnc3c2oc2nc(CC(C)C)c4c(c23)CCCC4)CC1 [CMP-55] | 0 | 0% | 0 | 0% | 0% | 0 |  |  |  |  |
| COCCNc1ncnc2c1sc1nc(N3CCOCC3)c3c(c12)CCCC3 [CMP-47] | 0 | 0% | 0 | 0% | 0% | 0 |  |  |  | None of these analogs showed any CCK1R activity |
| CCCc1nc2sc3c(NCCN4CCOCC4)ncnc3c2c2c1CCCC2 [CMP-8] | 2.3 and 2.31 | 48 ± 12% | 0 |  | 53 ± 1% | 2.34 | 15.7 ± 8.4 µM | 37.8 ± 3.9 µM |  |  |
| CCN(CC)c1ncnc2c1sc1nc(N3CCOCC3)c3c(c12)CCCC3 [CMP-46] | 0 | 0% | 0 | 0% | 0% | 0 |  |  |  | significantly diminished responses |
| CCN(CC)CCNc1ncnc2c1oc1nc(CC(C)C)c3c(c12)CCC3 [CMP-33] | 1.60 | 34 ± 1% | 0 |  | 35 ± 19% | 1.51 | 21 ± 6.5 µM | 18.8 ± 7.7 µM |  |  |
| CCCc1nc2sc3c(NCCCN(C)C)ncnc3c2c2c1CCCC2 [CMP-18] | 2.0 and 1.99 | 40 ± 17% | 0 |  | 43 ± 21% | 2.0 and 1.96 | 11.8 ± 14 µM | 12.7 ± 5.5 µM |  |  |
| CC(C)Cc1nc2oc3c(NCCCN(C)C)ncnc3c2c2c1CCC2 [CMP-13] | 1.4 and 1.35 | 28 ± 14% | 0 |  | 52 ± 36% | 2.2 and 2.23 | 12.6 ± 7.9 µM | 11.2 ± 4.2 µM |  |  |

The remaining compounds from weak to strong by EC50 [1], led by results:

| AVP2R PAM (cAMP) Score (activity score = normalized Emax × pEC50) [1] | Emax [1] | CCK1R Ago (IP-One) Score (activity score = normalized Emax × pEC50) (CCK1R [2]) | Emax (CCK1R [2]; average ± SD) | Emax (CCK1R [3]) | CCK1R PAM (IP-One) Score (activity score = normalized Emax × pEC50) (CCK1R [3]) | EC50 [1] | EC50 (CCK1R [3]) | EC50 (CCK1R [2]; average ± SD, read-out: CCK1R Ago (IP-One) EC50) | SMILES | CCK1R IP-One activity (in words) (CCK1R [3]) |
| --- | --- | --- | --- | --- | --- | --- | --- | --- | --- | --- |
| 1.67 | 33 ± 26% | 0 |  | 41 ± 34% | 1.52 | 9.3 ± 11.1 µM | 23.9 ± 25.8 µM |  | CCCCc1nc2sc3c(NCCN4CCOCC4)ncnc3c2c2c1CCCC2 [CMP-32] |  |
| 3.5 and 3.51 | 70 ± 4% | 0 | 0% | 38 ± 14% | 1.7 | 9.1 ± 1 µM | 18.4 ± 8.1 µM |  | CN(C)CCNc1nnnc2c1sc1nc(N3CCCCC3)c3c(c12)CCCC3 [CMP-27] |  |
| 2.13 | 42 ± 17% | 0 |  | 34 ± 13% | 1.50 | 7.8 ± 4 µM | 29 ± 13.1 µM |  | CC(C)Cc1nc2sc3c(NCCN4CCOCC4)ncnc3c2c2c1CCCC2 [CMP-34] |  |
| 1.6 and 1.61 | 31 ± 2% | 0 |  | 48 ± 11% | 2.4 and 2.39 | 6.5 ± 4.2 µM | 8 ± 2.1 µM |  | CCCc1nc2sc3c(NCCN(CC)CC)ncnc3c2c2c1CCCC2 [CMP-7] |  |
| 1.52 | 29% | 0 |  | 36 ± 16% | 1.55 | 5.9 ± 3.8 µM | 27.1 ± 10.7 µM |  | CCCc1nc2oc3c(N4CCN(CCO)CC4)ncnc3c2c2c1CCCC2 [CMP-30] |  |
| 2.9 and 2.92 | 52 ± 4% | 2.76 | 60 ± 4.5% | 39 ± 11% | 1.9 and 1.87 | 2.7 ± 0.7 µM | 12.2 ± 4.6 µM | 26.9 ± 1.1 µM | NCCNc1ncnc2c1sc1nc(N3CCCCC3)c3c(c12)CCCC3 [CMP-22] |  |
